Data on 11 compounds can be found in PubChem BioAssay (NCI).

Common to all, as to assay: NCI anticancer screen, dose series, 48 h
Experiment [1] relates to HS 578T breast.
The subject of experiment [2] is T-47D breast.
Experiment [3] concerns HCT-15 colon.
The test system of experiment [4] is UO-31 renal.
Experiment [5] concerns PC-3 prostate.
The subject of experiment [6] is MDA-MB-435.
In experiment [7] the test system is MDA-MB-231 breast.
Experiment [8] concerns CCRF-CEM leukemia.
In experiment [9] the test system is OVCAR-8 ovarian.
Experiment [10] deals with MALME-3M melanoma.

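Method: 48-hour compound exposure of cells in 96-well plates, five concentrations, linear interpolation of endpoints. GI50 marks 50% less growth. TGI: total growth inhibition.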 Some results are limits rather than exact numbers.

Turning to `Cn1cc(-c2csc(-c3cn(CCCCN4CCCCC4)c4ccccc34)n2)c2cccnc21`, the GI50 in experiment [1] is 1.67 µM; in experiment [2] it was 14.3 µM; in [3], 1.53 µM; in experiment [4], 1.51 µM; in experiment [5] it was 1.61 µM; in [6] it was 1.13 µM. Also, the TGI is 4.16 µM in experiment [1]; 40.3 µM in experiment [2]; 2.9 µM in [3]; 2.95 µM in experiment [4]; 3.03 µM in experiment [5]; 2.36 µM in [6].
For `COC(=O)C1C(O)C(C(=O)OC)C(C)N(C)C1C` (configuration not stated), the TGI in [7], in experiment [3], in experiment [4], in experiment [5], in [8] and in experiment [9] was over 100 µM throughout. In [6], the TGI was over 100 µM.
Regarding `CCC/C=C/C=C/C1CC(O)C(O)C(=O)C1CO` (configuration not stated), the TGI in experiment [7], in experiment [1], in [2], in experiment [3], in [4] and in [5] was over 100 µM throughout. The TGI in experiment [8], in [9] and in [6] was over 100 µM throughout.
As to `c1coc(-c2c3ccc(=[N+]4CCCCC4)cc-3oc3cc(N4CCCCC4)ccc23)c1`, the GI50 is 0.0353 µM in [4]; 0.0702 µM in experiment [5]; 0.0423 µM in [10]; 0.0306 µM in [8]; 0.0449 µM in experiment [9]. Besides, the TGI in experiment [4] came to 0.336 µM; in experiment [5], 1.06 µM; in [10] it was 0.184 µM; in experiment [8], 1.11 µM; in experiment [9] it was 1.1 µM.
Turning to `COc1ccc(C(=O)c2cc(OC)c(OC)c(OC)c2)cc1OC`, the TGI in experiment [7] is over 100 µM; in experiment [1], 8.83 µM; in experiment [3], over 100 µM; in experiment [4], 39.4 µM; in experiment [5], over 100 µM; in [10] it was over 100 µM. For the same compound, the TGI was over 100 µM in experiment [8], over 100 µM in experiment [9] and 1.89 µM in experiment [6].
For the compound `COc1cc(/C=C\c2cc(OC)c(OC)c(OC)c2)cc(N/C=C\C(=O)c2c[nH]c3ccccc23)c1OC`, the GI50 in experiment [7] is 1.73 µM; in [1] it was 2.21 µM; in [2], 1.55 µM; in experiment [3] it was 2.32 µM; in experiment [4], 0.326 µM; in [5], 3.44 µM. Besides, the values for the GI50 in experiment [10], in [9] and in [6] were 1.27 µM, 3.33 µM and 2.43 µM, respectively. The TGI worked out at 4.11 µM in experiment [7]; 12.9 µM in experiment [1]; 4.51 µM in experiment [2]; 5.63 µM in [3]; 2.05 µM in [4]; 18.6 µM in experiment [5]. The results for the TGI in [10], in [9] and in experiment [6] were 3.18 µM, 13.3 µM and 8.04 µM, respectively.
`COc1cc2c(/C=N\N=C(N)N)c[nH]c2cc1C`: the GI50 in [7] was 14.7 µM; in [1], 18.5 µM; in experiment [2] it was 11.7 µM; in experiment [3], 35.8 µM; in experiment [4], over 100 µM; in [5], 14.3 µM. For the same compound, the GI50 in experiment [8] is 14.6 µM; in [9], 40.2 µM; in experiment [6] it was 17 µM. The TGI in experiment [7] is 34.1 µM; in experiment [1], 40 µM; in [2] it was 27.9 µM; in [3], over 100 µM; in experiment [4], over 100 µM; in [5] it was 27.4 µM. The TGI in [8] was 27.7 µM; in experiment [9], over 100 µM; in [6] it was 33.2 µM.
Take `CC1CC(O)C(=O)C(O[C@@H]2C[C@@H]3CC[C@@H]4[C@H](CC[C@]5(C)C(C6=CC(=O)OC6)CC[C@]45O)[C@@]3(C=O)C[C@H]2O)O1` (some centres not stated): the TGI is 0.214 µM in [1]; 0.205 µM in [2]; 0.0716 µM in experiment [3]; 0.22 µM in [4]; under 0.0424 µM in experiment [5]; 0.0708 µM in experiment [10]. In addition, the TGI was 0.163 µM in [9] and 0.177 µM in experiment [6].
With `CC1(C)CN=C(NN=C(/C=C/c2ccc(C(F)(F)F)cc2)/C=C/c2ccc(C(F)(F)F)cc2)NC1`, the GI50 in [7] is 0.477 µM; in [1] it was 1.56 µM; in experiment [2], 1.49 µM; in experiment [3], 0.989 µM; in experiment [4], 1.52 µM; in experiment [10] it was 1.86 µM. Moreover, the GI50 in experiment [8] was 1.12 µM; in experiment [9], 1.67 µM; in experiment [6], 1.59 µM. Also, the TGI in experiment [7] turned out to be 1.91 µM; in experiment [1] it was 3.64 µM; in experiment [2], 3.03 µM; in experiment [3], 2.45 µM; in experiment [4], 2.94 µM; in experiment [10] it was 3.78 µM. Moreover, the results for the TGI in experiment [8], in experiment [9] and in [6] were 4.17 µM, 3.2 µM and 3 µM, respectively.
For `Cc1cc(Nc2nc(-c3cn(-c4ccc(Cl)cc4)nn3)nc3ccccc23)n[nH]1`, the GI50 is 17.7 µM in experiment [7]; over 50 µM in experiment [1]; 13.1 µM in experiment [2]; 2.17 µM in experiment [3]; 1.65 µM in [4]; 10.8 µM in experiment [10]. In addition, the GI50 was 19.5 µM in [8], 18.5 µM in experiment [9] and 11.6 µM in [6]. Moreover, the TGI in experiment [7] was over 50 µM; in experiment [1], over 50 µM; in experiment [2], 42.3 µM; in [3] it was over 50 µM; in experiment [4], 11.3 µM; in experiment [10], 30.1 µM. For the same compound, the TGI in experiment [8], in experiment [9] and in experiment [6] was over 50 µM throughout.
For `Nc1c(-c2ccccc2-c2c(N)[n+]([O-])c3ccccc3[n+]2[O-])[n+]([O-])c2ccccc2[n+]1[O-]`, the TGI in [3] was over 100 µM; in experiment [4], over 100 µM; in experiment [10] it was over 100 µM; in experiment [8], over 28.4 µM; in experiment [9], 81.5 µM.
